Values of other authors as cited in patent US20030190375A1, “Therapeutical use of sophora flavescens or sophora subprostrata extracts” (priority 2000, published 2003).

Assays:
[1] = Huang, The Pharmacology of Chinese Herbs, 1993
[2] = test system: Ishikawa-Var-I cells; conditions: Milligan et al 1999

O=C1CCC[C@@H]2[C@H]3CCC[N+]4([O-])CCC[C@@H](CN12)[C@@H]34 (some centres unmarked) [oxymatrine]
toxic effects in animal studies [1]: toxic effects could be shown

CC(C)=CCc1c(O)cc(O)c2c1O[C@H](c1ccc(O)cc1)CC2=O [8-prenylnaringenine]
oestrogenic potency in vitro (stimulation of alkaline phosphatase) [2]: significantly more active than the long-familiar phyto-oestrogens such as cumesterol, genistone or daidzin, and produced only a slightly weaker effect than 17β oestradiol
